As usually defined, the Ki is a measure of affinity in units of concentration, obtained from inhibition or displacement. By IC50 is commonly meant the concentration at which inhibition is half-maximal. Lower therefore signals higher potency. In general, inhibition refers to the drop in the measured response relative to a control, in per cent.

Where two headings read alike, the source gives them in different places.

Consider 18 molecules from patent US8710233B2 (Gruenenthal GmbH, priority 2005, dated 2014).

Holding throughout (assay type): cell-based
Assay [1] addresses T1, vanilloid receptor 1 (VR1/TRPV1) of the rat species (Rattus norvegicus, UniProt O35433).
T1 construct: The spinal column is removed from decapitated rats; from tissue; host or cells: primary cells dissociated from rat dorsal root ganglia
The experiment in a line: FLIPR Ca2+ influx assay on rat dorsal root ganglia cells (pharmacological method I). From the text: I. Functional Investigation of the Vanilloid Receptor 1 (VR1/TRPV1 Receptor)
The agonistic or antagonistic action of the substances to be investigated on the vanilloid receptor 1 (VR1/TRPV1) of the rat species may be determined by the following assay. According to this assay, the influx of Ca^2+ through the receptor channel is quantified with the assistance of a Ca^2+-sensitive dye (type Fluo-4, Molecular Probes Europe BV, Leiden, Netherlands) in a Fluorescent Imaging Plate Reader (FLIPR, Molecular Devices, Sunnyvale, USA).
The spinal column is removed from decapitated rats and is placed directly in cold, i.e. located in an ice bath, HBSS buffer (Hank's buffered saline solution, Gibco Invitrogen GmbH, Karlsruhe, Germany) combined with 1 vol. % (percent by volume) of an AA solution (antibiotic/antimycotic solution, PAA, Pasching, Austria). The spinal column is cut open longitudinally and removed together with fasciae from the spinal canal. The dorsal root ganglia (DRGs) are then removed and in turn stored in cold HBSS buffer combined with 1 vol. % of an AA solution. The DRGs, from which all traces of blood and spinal nerves have been removed, are in each case transferred into 500 μL of cold collagenase type 2 (PAA, Pasching, Austria) and incubated for 35 minutes at 37° C. […] Once incubation is complete, the enzyme solution is carefully removed by pipette and the DRGs, which are left behind, are in each case combined with 500 μL of complete medium.
The DRGs are in each case repeatedly suspended, drawn by means of a syringe through […], no. 12 and no. 16 cannulas and transferred into 50 mL Falcon microtubes and each tube is made up to 15 mL with complete medium. The contents of each Falcon microtube are in each case filtered through a 70 μm Falcon filter insert and centrifuged for 10 minutes at 1200 revolutions and room temperature. The resultant pellet is in each case resuspended in 250 μL of complete medium and the cell count determined.
The number of cells in the suspension is adjusted to 3×10^5 per mL and a 150 μL portion of this suspension is in each case placed in a well of the cell culture plate which has been coated as described above.
The cells are then loaded with 2 μM Fluo-4 and 0.01 vol. % Pluronic F127 (Molecular Probes Europe BV, Leiden, Netherlands) in HBSS buffer (Hank's buffered saline solution, Gibco Invitrogen GmbH, Karlsruhe, Germany) for 30 min at 37° C., washed 3× with HBSS buffer and, after a further 15 minutes' incubation at room temperature, used for Ca^2+ measurement in the FLIPR assay. […] Quantification proceeds by measuring the highest fluorescence intensity (FC, fluorescence counts) over time.
The FLIPR protocol comprises 2 additions of substance. The compounds to be tested (10 μM) are firstly pipetted onto the cells and Ca^2+ influx is compared with the control (capsaicin 10 μM). This provides the percentage activation relative to the Ca^2+ signal after addition of 10 μM of capsaicin (CP). After 5 minutes' incubation, 100 nM of capsaicin are added and the influx of Ca^2+ is again determined.
Desensitising agonists and antagonists result in suppression of Ca^2+ influx. The percentage inhibition in comparison with the maximum achievable inhibition with 10 μM capsaicin is calculated.
Triplicate determinations (n═3) are performed and these are repeated in at least 3 independent experiments […].

The target in assay [2] is T2, vanilloid receptor (VR1) (Homo sapiens, UniProt Q8NER1).
T2 construct: expressed in transfected cells; host or cells: CHO K1 cells (ECACC), stably transfected
As to the kind of experiment: FLIPR Ca2+ influx assay on CHO K1 cells transfected with the VR1 gene (pharmacological method II).

Assay [3] deals with VR1/TRPV1 receptor (Homo sapiens, UniProt Q8NER1). As to the kind of experiment: IC50 (human) after pH stimulus. The following applies: for inhibition at 1 µM / inhibition at 10 µM: read-out: inhibition in percent, IC50 (human) after pH stimulus.
[4] abbreviates: table 4, capsaicin, read-out: Ki (rat) Cap.
Where [5] appears, read: table 4, capsaicin, read-out: Ki (human) Cap.
Where [6] appears, read: Ki (rat) Cap., table 4, capsaicin.

Chain of VR1/TRPV1 receptor (Q8NER1 whole entry): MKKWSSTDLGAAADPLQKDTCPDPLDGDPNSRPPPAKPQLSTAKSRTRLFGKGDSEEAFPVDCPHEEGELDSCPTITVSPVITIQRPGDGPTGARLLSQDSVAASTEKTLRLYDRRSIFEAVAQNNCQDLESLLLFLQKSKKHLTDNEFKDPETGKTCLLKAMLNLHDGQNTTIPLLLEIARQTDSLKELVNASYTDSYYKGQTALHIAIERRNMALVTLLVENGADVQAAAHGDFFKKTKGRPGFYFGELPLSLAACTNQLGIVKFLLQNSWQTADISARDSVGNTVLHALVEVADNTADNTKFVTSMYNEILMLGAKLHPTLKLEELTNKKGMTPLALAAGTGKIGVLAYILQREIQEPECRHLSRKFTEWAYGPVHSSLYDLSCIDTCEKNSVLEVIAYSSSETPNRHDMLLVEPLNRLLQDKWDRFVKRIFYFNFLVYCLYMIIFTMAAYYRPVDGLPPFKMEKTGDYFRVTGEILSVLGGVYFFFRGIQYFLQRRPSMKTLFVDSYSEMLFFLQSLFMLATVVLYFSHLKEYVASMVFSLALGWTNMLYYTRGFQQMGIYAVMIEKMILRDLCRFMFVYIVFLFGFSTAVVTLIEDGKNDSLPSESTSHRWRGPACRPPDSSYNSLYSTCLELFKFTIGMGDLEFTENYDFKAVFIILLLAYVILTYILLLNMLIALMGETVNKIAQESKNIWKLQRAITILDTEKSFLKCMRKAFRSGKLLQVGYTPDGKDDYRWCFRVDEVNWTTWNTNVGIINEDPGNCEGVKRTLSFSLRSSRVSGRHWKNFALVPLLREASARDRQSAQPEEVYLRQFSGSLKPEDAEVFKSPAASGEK
T2 sequence (Q8NER1 whole entry): as above
T1 sequence (O35433 whole entry): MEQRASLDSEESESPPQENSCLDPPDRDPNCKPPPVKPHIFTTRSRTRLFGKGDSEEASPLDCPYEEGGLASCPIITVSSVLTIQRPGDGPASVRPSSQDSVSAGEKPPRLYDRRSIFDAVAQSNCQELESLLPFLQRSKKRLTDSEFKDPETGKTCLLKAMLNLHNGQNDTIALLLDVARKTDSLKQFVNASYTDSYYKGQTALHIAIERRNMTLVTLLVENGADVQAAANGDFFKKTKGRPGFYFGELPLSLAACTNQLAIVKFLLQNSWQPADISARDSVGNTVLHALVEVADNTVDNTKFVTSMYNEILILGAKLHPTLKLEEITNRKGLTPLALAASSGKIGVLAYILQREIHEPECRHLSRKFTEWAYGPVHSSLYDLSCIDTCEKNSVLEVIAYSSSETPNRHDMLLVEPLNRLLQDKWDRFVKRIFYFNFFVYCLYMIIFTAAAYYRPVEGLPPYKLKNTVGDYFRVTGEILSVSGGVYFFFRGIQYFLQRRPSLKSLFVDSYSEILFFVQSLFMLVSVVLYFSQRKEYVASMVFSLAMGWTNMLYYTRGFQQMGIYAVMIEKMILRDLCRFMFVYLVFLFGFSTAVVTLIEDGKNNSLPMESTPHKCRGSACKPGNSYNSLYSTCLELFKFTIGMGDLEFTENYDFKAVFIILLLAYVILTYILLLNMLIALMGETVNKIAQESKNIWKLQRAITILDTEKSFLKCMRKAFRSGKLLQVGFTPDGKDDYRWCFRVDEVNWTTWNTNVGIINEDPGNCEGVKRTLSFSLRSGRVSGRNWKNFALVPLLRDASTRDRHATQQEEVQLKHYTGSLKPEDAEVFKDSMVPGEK

Consider `CC(C(=O)NCc1ccc(C(F)(F)F)cc1OC1CCCC1)c1ccc(NS(C)(=O)=O)c(F)c1` (centres unmarked) [Example 42, N-(2-(cyclopentyloxy)-4-(trifluoromethyl)benzyl)-2-(3-fluoro-4-(methylsulfonamido)phenyl)propanamide], for which the results for the inhibitory constant (Ki) in assay [1] (setting [4]) and in assay [2] (setting [5]) were 0.5 nM and 0.6 nM, respectively. In assay [3] (table 4), this molecule came in with an IC50 of 26 nM.

As for `CC(C(=O)NCc1ccc(C(F)(F)F)nc1N1CCN(c2ccccc2F)CC1)c1ccc(NS(C)(=O)=O)c(F)c1` (centres unmarked) [Example 201, 2-(3-fluoro-4-methylsulfonamido-phenyl)-N-{2-[4-(2-fluoro-phenyl)-piperazin-1-yl]-6-trifluoromethyl-pyridin-3-ylmethyl}-propionamide], the Ki was 1.2 nM in assay [1] (setting [4]) and 2.4 nM in assay [2] (setting [5]). In addition, the IC50 in assay [3] (table 4) came out at 34 nM.

In the case of `CCOc1nc(C(F)(F)F)ccc1CNC(=O)C(C)c1ccc(NS(C)(=O)=O)c(F)c1` (centres unmarked) [Example 163, N-(2-ethoxy-6-trifluoromethyl-pyridin-3-ylmethyl)-2-(3-fluoro-4-methylsulfonamido-phenyl)-propionamide], the Ki in assay [1] (setting [6]) stood at 8.5 nM; in assay [2] (setting [5]) it was 12.7 nM. For the same molecule, the IC50 in assay [3] (table 4) was 277 nM.

Regarding `CC(C(=O)NCc1ccc(C(F)(F)F)nc1N1CCC2(CC1)CC(C(C)(C)C)=NO2)c1ccc(NS(C)(=O)=O)c(F)c1` (centres unmarked) [Example 251, N-[2-(3-tert-butyl-1-oxa-2,8-diaza-spiro[4.5]dec-2-en-8-yl)-6-trifluoromethyl-pyridin-3-ylmethyl]-2-(3-fluoro-4-methylsulfonamido-phenyl)-propionamide], the Ki in assay [1] (setting [4]) was determined as 8.7 nM; in assay [2] (setting [5]), 3.8 nM. In assay [3] (table 4), this molecule returned an IC50 of 281 nM.

For `CCCN(CCC)c1cc(C(F)(F)F)ccc1CNC(=O)C(C)c1ccc(NS(C)(=O)=O)c(F)c1` (centres unmarked) [Example 37, N-(2-(dipropylamino)-4-(trifluoromethyl)benzyl)-2-(3-fluoro-4-(methylsulfonamido)phenyl)propanamide], the inhibition constant Ki is 1.8 nM in assay [1] (setting [4]) and 0.3 nM in assay [2] (setting [5]). The molecule further displayed a half-inhibitory concentration (IC50) in assay [3] (table 4) of 26.2 nM.

`Cc1cc(C(C)C(=O)NCc2ccc(C(F)(F)F)nc2N2CCC(C)CC2)ccc1NS(C)(=O)=O` (centres unmarked) [Example 196, 2-(4-methylsulfonamido-3-methyl-phenyl)-N-(4-methyl-6′-trifluoromethyl-3,4,5,6-tetrahydro-2H-[1,2′]bipyridinyl-3′-ylmethyl)-propionamide]: the Ki in assay [1] (setting [4]) amounted to 0.4 nM; in assay [2] (setting [5]), 0.6 nM. Also, the inhibition at 1 µM in assay [3] (@ 1 μM, ne = no effect) turned out to be 41%.

Consider `CC(C(=O)NCc1ccc(C(F)(F)F)nc1N1CCC(=O)CC1)c1ccc(NS(C)(=O)=O)c(F)c1` (centres unmarked) [Example 227], for which the values for the inhibition constant (Ki) in assay [1] (setting [4]) and in assay [2] (setting [5]) were 348 nM and 91 nM, respectively. In addition, the inhibition at 1 µM in assay [3] (@ 1 μM, ne = no effect) turned out to be 7%. In addition, in assay [3], the inhibition at 10 µM came to 51%.

As to `Cc1ccc(Nc2nc(C(F)(F)F)ccc2CNC(=O)C(C)c2ccc(NS(C)(=O)=O)c(F)c2)cc1C` (centres unmarked) [Example 135, N-[2-(3,4-dimethyl-phenylamino)-6-trifluoromethyl-pyridin-3-ylmethyl]-2-(3-fluoro-4-methylsulfonamido-phenyl)-propionamide], the figures for the inhibition constant (Ki) in assay [1] (setting [4]) and in assay [2] (setting [5]) were 48.9 nM and 39.3 nM, respectively. This molecule also registered an IC50 in assay [3] (table 4) of 1160 nM.

Consider `CC1CCCN(c2nc(C(F)(F)F)ccc2CNC(=O)C(C)c2ccc(NS(C)(=O)=O)c(F)c2)C1` (centres unmarked) [Example 282, 2-(3-fluoro-4-methylsulfonamido-phenyl)-N-(3-methyl-6′-trifluoromethyl-3,4,5,6-tetrahydro-2H-[1,2′]bipyridinyl-3′-ylmethyl)-propionamide], for which the values for the Ki in assay [1] (setting [4]) and in assay [2] (setting [5]) were 1.2 nM and 0.8 nM, respectively. Also, the inhibition at 1 µM in assay [3] (@ 1 μM, ne = no effect) was 57%. Further, the inhibition at 10 µM in assay [3] is 62%.

Regarding `CC1CCN(c2nc(C(F)(F)F)ccc2CNC(=O)C(C)c2ccc(NS(=O)(=O)N(C)C)c(F)c2)CC1` (centres unmarked) [Example 288, 2-(4-dimethylaminsulfonylamino-3-fluoro-phenyl)-N-(4-methyl-6′-trifluoromethyl-3,4,5,6-tetrahydro-2H-[1,2′]bipyridinyl-3′-ylmethyl)-propionamide], the Ki worked out at 41 nM in assay [1] (setting [4]) and 42 nM in assay [2] (setting [5]). Besides, the “inhibition in percent, IC50 (human) after pH stimulus” value in assay [3] (@ 1 μM, ne = no effect) is reported as “ne @ 1 μM”.

Turning to `CC(C(=O)NCc1ccc(C(F)(F)F)nc1OCC1CCCC1)c1ccc(NS(C)(=O)=O)c(F)c1` (centres unmarked) [Example 161, N-(2-cyclopentylmethoxy-6-trifluoromethyl-pyridin-3-ylmethyl)-2-(3-fluoro-4-methylsulfonamido-phenyl)-propionamide], the values for the Ki in assay [1] (setting [6]) and in assay [2] (setting [5]) were 0.7 nM and 0.4 nM, respectively. For the same molecule, half-maximal inhibition in assay [3] (table 4) (IC50) required 11.6 nM.

Consider `CC(C(=O)NCc1ccc(C(F)(F)F)cc1N1CCC(C(F)(F)F)CC1)c1ccc(NS(C)(=O)=O)c(F)c1` (centres unmarked) [Example 230, 2-(3-fluoro-4-methylsulfonamido-phenyl)-N-[4-trifluoromethyl-2-(4-trifluoromethyl-piperidin-1-yl)-benzyl]-propionamide], for which the Ki was determined as 0.6 nM in assay [1] (setting [4]) and 0.4 nM in assay [2] (setting [5]). In assay [3] (table 4), this molecule displayed an IC50 of 20.1 nM.

For the molecule `CC(C(=O)NCc1ccc(C(F)(F)Cl)nc1N1CCN(c2ccccc2)CC1)c1ccc(NS(C)(=O)=O)c(F)c1` (centres unmarked) [Example 207], the Ki in assay [1] (setting [4]) and in assay [2] (setting [5]) was 0.8 nM throughout. In assay [3] (table 4), this molecule registered an IC50 of 38.6 nM.

For `CC(C)COc1nc(C(F)(F)Cl)ccc1CNC(=O)C(C)c1ccc(NS(C)(=O)=O)c(F)c1` (centres unmarked) [Example 208, N-[6-(chloro-difluoro-methyl)-2-isobutoxy-pyridin-3-ylmethyl]-2-(3-fluoro-4-methylsulfonamido-phenyl)-propionamide], the inhibitory constant (Ki) in assay [1] (setting [4]) is 0.5 nM; in assay [2] (setting [5]) it was 0.6 nM. This molecule also showed an IC50 in assay [3] (table 4) of 38.6 nM.

As to `C[C@@H](C(=O)NCc1ccc(C(F)(F)F)nc1N1CCCCC1)c1ccc(NS(C)(=O)=O)c(F)c1` [Example 11, (R)-2-(3-fluoro-4-(methylsulfonamido)phenyl)-N-((2-(piperidin-1-yl)-6-(trifluoromethyl)pyridin-3-yl)methyl)propanamide], the inhibition constant (Ki) in assay [1] (Table 2, displacement of capsaicin (100 nM), Cheng-Prusoff, read-out: Ki (rat)) came out at 1.1 nM; in assay [2] (Table 2, displacement of capsaicin (100 nM), Cheng-Prusoff, read-out: Ki (human)), 0.3 nM. Further, in assay [3] (Table 2), half-maximal inhibition (IC50) required 46.7 nM.

In the case of `CC(C(=O)NCc1ccc(C(F)(F)F)nc1OCc1ccc(Cl)cc1)c1ccc(NS(C)(=O)=O)c(F)c1` (centres unmarked) [Example 258, N-[2-(4-chloro-benzyloxy)-6-trifluoromethyl-pyridin-3-ylmethyl]-2-(3-fluoro-4-methylsulfonamido-phenyl)-propionamide], the results for the inhibition constant (Ki) in assay [1] (setting [4]) and in assay [2] (setting [5]) were 1.3 nM and 2.5 nM, respectively. This molecule displayed an IC50 in assay [3] (table 4) of 132 nM.

As to `CC(C(=O)NCc1ccc(C(F)(F)F)nc1OCC1CC1(C)C)c1ccc(NS(C)(=O)=O)c(F)c1` (centres unmarked) [Example 279, N-[2-(2,2-dimethyl-cyclopropylmethoxy)-6-trifluoromethyl-pyridin-3-ylmethyl]-2-(3-fluoro-4-methylsulfonamido-phenyl)-propionamide], the values for the Ki in assay [1] (setting [6]) and in assay [2] (setting [5]) were 1.7 nM and 1.1 nM, respectively. In addition, the concentration for half-maximal inhibition (IC50) in assay [3] (table 4) was found to be 161 nM.

Regarding `CCCCOc1cc(C(F)(F)F)ccc1CNC(=O)C(C)c1ccc(NS(C)(=O)=O)c(F)c1` (centres unmarked) [Example 40, N-(2-butoxy-4-(trifluoromethyl)benzyl)-2-(3-fluoro-4-(methylsulfonamido)-phenyl)propanamide], the inhibitory constant (Ki) in assay [1] (setting [4]) was 0.4 nM; in assay [2] (setting [5]), 1 nM. For the same molecule, half-maximal inhibition in assay [3] (table 4) (IC50) was put at 48 nM.
